Reference: ChEMBL document CHEMBL5233262, “Anti-inflammatory activity of naturally occuring diarylheptanoids - A review” (Bioorg Med Chem, 2021)
≈ marks a conversion by molar mass, not a printed value.

Columns and labels:
[1] = tested on: Mus musculus; test: Protective activity in Pde6brd10 mouse model of Retinitis pigmentosa assessed as decrease in IL-6 production in retina at 5 mg/kg,ip for 14 days by ELISA; type: functional; design: scale not given: the % may be the effect or the level left; conditions: time 14 day
[2] = tested on: Mus musculus; test: Protective activity in Pde6brd10 mouse model of Retinitis pigmentosa assessed as decrease in TNF-alpha gene expression level in retina at 5 mg/kg,ip for 14 days by qRT-PCR analysis; type: functional; design: scale not given: the % may be the effect or the level left; conditions: time 14 day
[3] = tested on: Mus musculus; test: Protective activity in Pde6brd10 mouse model of Retinitis pigmentosa assessed as decrease in IL-1beta production in retina at 5 mg/kg,ip for 14 days by ELISA; type: functional; design: scale not given: the % may be the effect or the level left; conditions: time 14 day
[4] = tested on: Mus musculus; test: Protective activity in Pde6brd10 mouse model of Retinitis pigmentosa assessed as decrease in IL-12 production in retina at 5 mg/kg,ip for 14 days by ELISA; type: functional; design: scale not given: the % may be the effect or the level left; conditions: time 14 day
[5] = tested on: Mus musculus; test: Protective activity in Pde6brd10 mouse model of Retinitis pigmentosa assessed as decrease in IL-6 gene expression level in retina at 5 mg/kg,ip for 14 days by qRT-PCR analysis; type: functional; design: scale not given: the % may be the effect or the level left; conditions: time 14 day
[6] = tested on: Mus musculus; test: Protective activity in Pde6brd10 mouse model of Retinitis pigmentosa assessed as decrease in IL-12 gene expression level in retina at 5 mg/kg,ip for 14 days by qRT-PCR analysis; type: functional; design: scale not given: the % may be the effect or the level left; conditions: time 14 day
[7] = tested on: Mus musculus; test: Protective activity in Pde6brd10 mouse model of Retinitis pigmentosa assessed as decrease in NO production in retina at 5 mg/kg,ip for 14 days by Griess assay; type: functional; design: scale not given: the % may be the effect or the level left; conditions: time 14 day
[8] = tested on: Mus musculus; test: Protective activity in Pde6brd10 mouse model of Retinitis pigmentosa assessed as decrease in TNFalpha production in retina at 5 mg/kg,ip for 14 days by ELISA; type: functional; design: scale not given: the % may be the effect or the level left; conditions: time 14 day
[9] = tested on: Mus musculus; test: Protective activity in Pde6brd10 mouse model of Retinitis pigmentosa assessed as decrease in NF-kappaB expression level in retina at 5 mg/kg,ip for 14 days by Western blot analysis; type: functional; design: scale not given: the % may be the effect or the level left; conditions: time 14 day
[10] = tested on: Mus musculus; test: Protective activity in Pde6brd10 mouse model of Retinitis pigmentosa assessed as decrease in IL-1beta gene expression level in retina at 5 mg/kg,ip for 14 days by qRT-PCR analysis; type: functional; design: scale not given: the % may be the effect or the level left; conditions: time 14 day
[11] = tested on: HUVEC; test: Antiinflammatory activity in human HUVEC cells assessed as TNFalpha induced NF-kappaB transactivation at 5 to 20 uM preincubated for 1 hrs followed by TNFalpha stimulation and measured after 6 hrs by fluorescence analysis; type: functional; conditions: dose 5-20 µM, time 7 hrs
[12] = tested on: HUVEC; test: Antiinflammatory activity in human HUVEC cells assessed as TNFalpha induced VCAM-1 expression at 5 to 20 uM preincubated for 1 hrs followed by TNFalpha stimulation and measured after 6 hrs by fluorescence analysis; type: functional; conditions: dose 5-20 µM, time 7 hrs
[13] = tested on: HUVEC; test: Antiinflammatory activity in human HUVEC cells assessed as LPS induced VCAM-1 expression at 5 to 20 uM preincubated for 1 hrs followed by LPS stimulation and measured after 6 hrs by fluorescence analysis; type: functional; conditions: dose 5-20 µM, time 7 hrs
[14] = tested on: HUVEC; test: Antiinflammatory activity in human HUVEC cells assessed as LPS induced NF-kappaB transactivation at 5 to 20 uM preincubated for 1 hrs followed by LPS stimulation and measured after 6 hrs by fluorescence analysis; type: functional; conditions: dose 5-20 µM, time 7 hrs
[15] = Antiinflammatory activity in human HAP1 cells assessed as inhibition of LPS-induced NF-kappaB activation at 5 uM; type: functional
[16] = Antiinflammatory activity in human HAP1 cells assessed as inhibition of LPS-induced ROS production at 5 uM; type: functional
[17] = Antiinflammatory activity in human HAP1 cells assessed as inhibition of LPS-induced NO production at 5 uM; type: functional
[18] = Anti-osteoclastogenic activity in human BMDC assessed in inhibition of RANKL mediated osteoclast differentiation; type: functional, cell-based
[19] = Antiinflammatory activity in human HAP1 cells assessed as inhibition of LPS-induced p38 MAPK activation at 5 uM; type: functional
[20] = tested on: RAW264.7; test: Antiinflammatory activity in mouse RAW264.7 cells assessed as inhibition of LPS-induced NO production for 24 hrs by colorimetric analysis; type: functional, cell-based; conditions: RAW264.7, 24 h
[21] = Antiinflammatory activity in human HAP1 cells assessed as inhibition of LPS-induced iNOS expression at 5 uM; type: functional
[22] = tested on: RAW264.7; test: Antiinflammatory activity in mouse RAW264.7 cells assessed as inhibition of LPS-induced IL-6 production at 3 to 100 uM preincubated for 2 hrs followed by LPS stimulation and measured after 24 hrs by ELISA; type: functional; conditions: dose 3-100 µM, time 26 hrs
[23] = tested on: RAW264.7; test: Antiinflammatory activity in mouse RAW264.7 cells assessed as inhibition of LPS-induced TNFalpha production at 3 to 100 uM preincubated for 2 hrs followed by LPS stimulation and measured after 24 hrs by ELISA; type: functional; conditions: dose 3-100 µM, time 26 hrs
[24] = tested on: RAW264.7; test: Antiinflammatory activity in mouse RAW264.7 cells assessed as inhibition of LPS-induced NO production at 3 to 100 uM preincubated for 2 hrs followed by LPS stimulation and measured after 24 hrs by Griess method; type: functional; conditions: dose 3-100 µM, time 26 hrs
[25] = tested on: RAW264.7; test: Antiinflammatory activity in mouse RAW264.7 cells assessed as inhibition of LPS-induced NO production; type: functional, cell-based
[26] = tested on: RAW264.7; test: Antiinflammatory activity in mouse RAW264.7 cells assessed as inhibition of LPS-induced TNFalpha production; type: functional, cell-based
[27] = tested on: Hep 3B2; test: Antiinflammatory activity in human Hep3B cells assessed as inhibition of IL-6 stimulated IL-1beta mRNA expression at 30 uM preincubated for 60 mins followed by IL-6 stimulation and measured after 20 mins by RT-PCR analysis; type: functional; conditions: 1.333 h, time 80 min
[28] = tested on: Hep 3B2; test: Antiinflammatory activity in human Hep3B cells assessed as inhibition of IL-6 stimulated SOCS3 mRNA expression at 30 uM preincubated for 60 mins followed by IL-6 stimulation and measured after 20 mins by RT-PCR analysis; type: functional; conditions: 1.333 h, time 80 min
[29] = tested on: Hep 3B2; test: Antiinflammatory activity in human Hep3B cells assessed as inhibition of IL-6 stimulated ICAM-1 mRNA expression at 30 uM preincubated for 60 mins followed by IL-6 stimulation and measured after 20 mins by RT-PCR analysis; type: functional; conditions: 1.333 h, time 80 min
[30] = tested on: Hep 3B2; test: Antiinflammatory activity in human Hep3B cells assessed as inhibition of IL-6 stimulated CRP mRNA expression at 30 uM preincubated for 60 mins followed by IL-6 stimulation and measured after 20 mins by RT-PCR analysis; type: functional; conditions: 1.333 h, time 80 min
[31] = Antiinflammatory activity in C57BL/6 mouse BMDC cells assessed as inhibition of imiquimod-induced IL-6 mRNA expression level at 10 uM and measured after 12 hrs by qpCR analysis; type: functional; conditions: C57BL/6, BMDC
[32] = Antiinflammatory activity in C57BL/6 mouse BMDC cells assessed as inhibition of imiquimod-induced IL-6 expression level at 10 uM and measured after 12 hrs by western blot analysis; type: functional; conditions: C57BL/6, BMDC
[33] = Antiinflammatory activity in C57BL/6 mouse BMDC cells assessed as inhibition of imiquimod-induced IL-1beta expression level at 10 uM and measured after 12 hrs by western blot analysis; type: functional; conditions: C57BL/6, BMDC
[34] = Antiinflammatory activity in C57BL/6 mouse BMDC cells assessed as inhibition of imiquimod-induced IL-12 expression level at 10 uM and measured after 12 hrs by western blot analysis; type: functional; conditions: C57BL/6, BMDC
[35] = Antiinflammatory activity in C57BL/6 mouse BMDC cells assessed as inhibition of imiquimod-induced IL-12 mRNA expression level at 10 uM and measured after 12 hrs by qpCR analysis; type: functional; conditions: C57BL/6, BMDC
[36] = Antiinflammatory activity in C57BL/6 mouse BMDC cells assessed as inhibition of imiquimod-induced IL-1beta mRNA expression level at 10 uM and measured after 12 hrs by qpCR analysis; type: functional; conditions: C57BL/6, BMDC

In the case of `COc1c2cc(c(OC)c1O)-c1cc(ccc1O)CC[C@@H](O)CCCC2`, the Activity [1] is reported as 12%, the Activity [2] is reported as 49% and the Activity [3] is reported as 22%. The Activity [4] was 12%, the Activity [5] was 31% and the Activity [6] was 38%. The Activity [7] was 21%, the Activity [8] was 16% and the Activity [9] was 50%. The Activity [10] was 41%.
In the case of `COc1cc(CC/C=C/C(=O)CCc2ccc(O)c(OC)c2)ccc1O`, the Activity [11] is reported as 7%, the Activity [12] is reported as 26% and the Activity [13] is reported as 17%. For the same compound, the Activity [14] was 8%.
`Oc1ccc(CC[C@@H](O)CC/C=C/c2ccccc2)cc1O` gave an inhibition at 5 µM [15] of 52%, an inhibition at 5 µM [16] of 90% and an inhibition at 5 µM [17] of 91%. It also gave an IC50 [18] of 0.325 µM, an inhibition at 5 µM [19] of 44% and an IC50 [20] of 0.42 µM. For the same compound, the inhibition at 5 µM [21] was 85%.
With `COc1cc2ccc1Oc1cc(ccc1O)CC[C@H](O[C@@H]1O[C@H](CO)[C@@H](O)[C@H](O)[C@H]1O)CC(=O)CC2` the “inhibition (INH)” value [22] was 29.2%, the “inhibition (INH)” value [23] was 44.1% and the “inhibition (INH)” value [24] was 32.7%.
`COc1cc([C@@H](O)[C@@H](O)[C@@H](O)C[C@H](O)CCc2ccc(O)cc2)ccc1O` showed an IC50 [25] of 32.6 mg/L (≈ 86.1 µM) and an IC50 [26] greater than 100 µM.
`COc1ccc(/C=C/C(C[C@H](O)CCc2ccc(OC)c(OC)c2)OC)cc1OC` (stereo partly specified) showed an inhibition at 30 µM [27] of 91%, an inhibition at 30 µM [28] of 91% and an inhibition at 30 µM [29] of 76%. It also gave an inhibition at 30 µM [30] of 91%.
`O=C(/C=C/C=C/c1ccc(O)cc1)CCc1ccc(O)cc1` showed an inhibition at 10 µM [31] of 61%, an inhibition at 10 µM [32] of 58% and an inhibition at 10 µM [33] of 56%. It also gave an inhibition at 10 µM [34] of 31%, an inhibition at 10 µM [35] of 69% and an inhibition at 10 µM [36] of 86%.
